According to US9409884B2 (Rigel Pharmaceuticals, Inc., priority 2012, dated 2016):

Target: AMPK
Test: AMPK activation, enzyme-linked immunosorbent assay
Format: biochemical
Settings: Table 13, compounds of Table 6
In short: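 Read-out: ELISA, used to detect compound-driven activation of AMPK.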

Structure (SMILES)	EC50 [nM]
N#Cc1ccc(CN2CCC(NC(=O)c3cc4cc(C(=O)N5CCN(Cc6cnn(-c7ccc(C#N)cc7)c6)CC5)ccc4o3)CC2)cc1 [Compound 6-77, N-(1-(4-cyanobenzyl)piperidin-4-yl)-5-(4-((1-(4-cyanophenyl)-1H-pyrazol-4-yl)methyl)piperazine-1-carbonyl)benzofuran-2-carboxamide]	< 100
N#Cc1ccc(CN2CCC(NC(=O)c3cc4cc(C(=O)N5CCN(Cc6ccc(-n7cccn7)cc6)CC5)ccc4o3)CC2)cc1 [Compound 6-79, 5-(4-(4-(1H-pyrazol-1-yl)benzyl)piperazine-1-carbonyl)-N-(1-(4-cyanobenzyl)piperidin-4-yl)benzofuran-2-carboxamide]	< 100
N#Cc1ccc(CN2CCC(NC(=O)c3cc4cc(C(=O)N5CCN(Cc6ccc(N7CCCC7)cc6)CC5)ccc4o3)CC2)cc1 [Compound 6-80, N-(1-(4-cyanobenzyl)piperidin-4-yl)-5-(4-(4-(pyrrolidin-1-yl)benzyl)piperazine-1-carbonyl)benzofuran-2-carboxamide]	< 100
N#Cc1ccc(CN2CCC(NC(=O)c3cc4cc(C(=O)N5CCN(Cc6ccc(OC(F)(F)F)cc6)CC5)ccc4o3)CC2)cc1 [Compound 6-81, N-(1-(4-cyanobenzyl)piperidin-4-yl)-5-(4-(4-(trifluoromethoxy)benzyl)piperazine-1-carbonyl) benzofuran-2-carboxamide]	< 100
N#Cc1ccc(CN2CCC(NC(=O)c3cc4cc(C(=O)N5CCN(Cc6ccc(-c7ccccn7)cc6)CC5)ccc4o3)CC2)cc1 [Compound 6-82, N-(1-(4-cyanobenzyl)piperidin-4-yl)-5-(4-(4-(pyridin-2-yl)benzyl)piperazine-1-carbonyl)benzofuran-2-carboxamide]	< 100
N#Cc1ccc(CN2CCC(NC(=O)c3cc4cc(NC(=O)C5CCN(c6ccc(C(F)(F)F)cc6)CC5)ccc4o3)CC2)cc1 [Compound 6-83, N-(2-(1-(4-cyanobenzyl)piperidin-4-ylcarbamoyl)benzofuran-5-yl)-1-(4-(trifluoromethyl)phenyl) piperidine-4-carboxamide]	1000 to 10000
CS(=O)(=O)c1ccc(N2CCC(C(=O)Nc3ccc4oc(C(=O)NC5CCN(Cc6ccc(C#N)cc6)CC5)cc4c3)CC2)cc1 [Compound 6-84, N-(2-(1-(4-cyanobenzyl)piperidin-4-ylcarbamoyl)benzofuran-5-yl)-1-(4-(methylsulfonyl)phenyl) piperidine-4-carboxamide]	< 100
CS(=O)(=O)c1ccc(C(=O)Nc2ccc3oc(C(=O)NC4CCN(Cc5ccc(C#N)cc5)CC4)cc3c2)cc1 [Compound 6-85, N-(1-(4-cyanobenzyl)piperidin-4-yl)-5-(4-(methylsulfonyl)benzamido) benzofuran-2-carboxamide]	1000 to 10000
N#Cc1ccc(CN2CCC(NC(=O)c3cc4cc(C(=O)N5CCN(c6ccc(F)cc6)CC5)ccc4o3)CC2)cc1 [Compound 6-86, N-(1-(4-cyanobenzyl)piperidin-4-yl)-5-(4-(4-fluorophenyl)piperazine-1-carbonyl)benzofuran-2-carboxamide]	< 100
CS(=O)(=O)c1ccc(N2CCN(C(=O)c3ccc4oc(C(=O)NC5CCN(Cc6ccc(C#N)cc6)CC5)cc4c3)CC2)cc1 [Compound 6-87, N-(1-(4-cyanobenzyl)piperidin-4-yl)-5-(4-(4-(methylsulfonyl)phenyl)piperazine-1-carbonyl) benzofuran-2-carboxamide]	100 to 1000
N#Cc1ccc(CN2CCC(NC(=O)c3cc4cc(C(=O)NC5CCN(c6ccc(C#N)cc6)CC5)ccc4o3)CC2)cc1 [Compound 6-90, N2-(1-(4-cyanobenzyl)piperidin-4-yl)-N5-(1-(4-cyanophenyl)piperidin-4-yl)benzofuran-2,5-dicarboxamide]	< 100
N#Cc1ccc(CN2CCC(NC(=O)c3cc4cc(C(=O)NC5CCN(Cc6ccn(-c7ccc(C#N)cc7)n6)CC5)ccc4o3)CC2)cc1 [Compound 6-91, N2-(1-(4-cyanobenzyl)piperidin-4-yl)-N5-(1-((1-(4-cyanophenyl)-1H-pyrazol-3-yl)methyl)piperidin-4-yl)benzofuran-2,5-dicarboxamide]	1000 to 10000
N#Cc1ccc(CN2CCC(NC(=O)c3cc4cc(C(=O)NC5CCN(Cc6ccc(-n7cccn7)cc6)CC5)ccc4o3)CC2)cc1 [Compound 6-92, N5-(1-(4-(lH-pyrazol-1-yl)benzyl)piperidin-4-yl)-N2-(1-(4-cyanobenzyl)piperidin-4-yl)benzofuran-2,5-dicarboxamide]	100 to 1000
N#Cc1ccc(CN2CCC(NC(=O)c3cc4cc(C(=O)NC5CCN(Cc6ccc(OC(F)(F)F)cc6)CC5)ccc4o3)CC2)cc1 [Compound 6-93, N2-(1-(4-cyanobcnzyl)piperidin-4-yl)-N5-(1-(4-(trifluoromethoxy)benzyl)piperidin-4-yl)benzofuran-2,5-dicarboxamide]	100 to 1000
COc1ccc(CN2CCC(NC(=O)c3cc4cc(C(=O)N5CCN(Cc6ccc(S(C)(=O)=O)cc6)CC5)ccc4o3)CC2)cc1 [Compound 6-94, N-(1-(4-methoxybenzyl)piperidin-4-yl)-5-(4-(4-(methylsulfonyl)benzyl)piperazine-1-carbonyl) benzofuran-2-carboxamide]	100 to 1000
CS(=O)(=O)c1ccc(CN2CCN(C(=O)c3ccc4oc(C(=O)NC5CCN(Cc6ccc(OC(F)(F)F)cc6)CC5)cc4c3)CC2)cc1 [Compound 6-95, 5-(4-(4-(methylsulfonyl)benzyl)piperazine-1-carbonyl)-N-(1-(4-(trifluoromethoxy)benzyl)piperidin-4-yl)benzofuran-2-carboxamide]	100 to 1000
COc1ccc(CN2CCC(NC(=O)c3cc4cc(C(=O)N5CCN(Cc6ccc(-n7cccn7)cc6)CC5)ccc4o3)CC2)cc1 [Compound 6-96, 5-(4-(4-(1H-pyrazol-1-yl)benzyl)piperazine-1-carbonyl)-N-(1-(4-methoxybenzyl)piperidin-4-yl)benzofuran-2-carboxamide]	< 100
O=C(NC1CCN(Cc2ccc(OC(F)(F)F)cc2)CC1)c1cc2cc(C(=O)N3CCN(Cc4ccc(-n5cccn5)cc4)CC3)ccc2o1 [Compound 6-97, 5-(4-(4-(1H-pyrazol-1-yl)benzyl)piperazine-1-carbonyl)-N-(1-(4-(trifluoromcthoxy)benzyl)piperidin-4-yl)benzofuran-2-carboxamide]	< 100
COc1cc(CN2CCC(NC(=O)c3cc4cc(C(=O)N5CCN(Cc6ccc(S(C)(=O)=O)cc6)CC5)ccc4o3)CC2)ccc1F [Compound 6-98, N-(1-(4-fluoro-3-methoxybenzyl)piperidin-4-yl)-5-(4-(4-(methylsulfonyl)benzyl)piperazine-1-carbonyl) benzofiiran-2-carboxamide]	100 to 1000
COc1cccc(CN2CCC(NC(=O)c3cc4cc(C(=O)N5CCN(Cc6ccc(S(C)(=O)=O)cc6)CC5)ccc4o3)CC2)c1 [Compound 6-99, N-(1-(3-methoxybenzyl)piperidin-4-yl)-5-(4-(4-(methylsulfonyl)benzyl)piperazine-1-carbonyl) benzofuran-2-carboxamide]	1000 to 10000
CS(=O)(=O)c1ccc(CN2CCN(C(=O)c3ccc4oc(C(=O)NC5CCN(Cc6ccc(OC(F)F)cc6)CC5)cc4c3)CC2)cc1 [Compound 6-101, N-(1-(4-(difluoromethoxy)benzyl)piperidin-4-yl)-5-(4-(4-(methylsulfonyl)benzyl)piperazine-1-carbonyl) benzofuran-2-carboxamide]	100 to 1000
CS(=O)(=O)c1ccc(CN2CCN(C(=O)c3ccc4oc(C(=O)NC5CCN(Cc6ccc(C#N)cc6)CC5)cc4c3)CC2)cc1F [Compound 6-102]	< 100
Cc1cc(CN2CCN(C(=O)c3ccc4oc(C(=O)NC5CCN(Cc6ccc(C#N)cc6)CC5)cc4c3)CC2)ccc1S(C)(=O)=O [Compound 6-103, N-(1-(4-cyanobenzyl)piperidin-4-yl)-5-(4-(3-methyl-4-(methylsulfonyl)benzyl)piperazine-1-carbonyl) benzofuran-2-carboxamide]	< 100
N#Cc1ccc(CN2CCC(NC(=O)c3cc4cc(C(=O)N5CCN(Cc6ccc(S(=O)(=O)C7CC7)cc6)CC5)ccc4o3)CC2)cc1 [Compound 6-104, N-(1-(4-cyanobenzyl)piperidin-4-yl)-5-(4-(4-(cyclopropylsulfonyl)benzyI)piperazine-1-carbonyl) benzofuran-2-carboxamide]	< 100
CS(=O)(=O)c1ccc(CN2CCN(C(=O)c3ccc4oc(C(=O)NC5CCN(Cc6ccc(C#N)cc6)CC5)cc4c3)CC2)cc1C(F)(F)F [Compound 6-105, N-(1-(4-cyanobenzyl)piperidin-4-yl)-5-(4-(4-(methylsulfonyl)-3-(trifluoromethyl)benzyl)piperazine-1-carbonyl) benzofuran-2-carboxamide]	< 100
COc1ccc(N2CCN(C(=O)c3ccc4oc(C(=O)NC5CCN(Cc6ccc(C#N)cc6)CC5)cc4c3)CC2)cc1 [Compound 6-106, N-(1-(4-cyanobenzyl)piperidin-4-yl)-5-(4-(4-methoxyphenyl)piperazine-1-carbonyl)benzofuran-2-carboxamide]	< 100
N#Cc1ccc(CN2CCC(NC(=O)c3cc4cc(C(=O)N5CCN(c6ccc(C#N)cc6)CC5)ccc4o3)CC2)cc1 [Compound 6-107, N-(1-(4-cyanobenzyl)piperidin-4-yl)-5-(4-(4-cyanophenyl)piperazine-1-carbonyl)benzofuran-2-carboxamide]	< 100
CC(C)S(=O)(=O)c1ccc(N2CCN(C(=O)c3ccc4oc(C(=O)NC5CCN(Cc6ccc(C#N)cc6)CC5)cc4c3)CC2)cc1 [Compound 6-108, N-(1-(4-cyanobenzyl)piperidin-4-yl)-5-(4-(4-(isopropylsulfonyl)phenyl)piperazine-1-carbonyl) benzofuran-2-carboxamide]	< 100
N#Cc1ccc(CN2CCC(NC(=O)c3cc4cc(C(=O)N5CCN(c6ccc(C(=O)C7CC7)cc6)CC5)ccc4o3)CC2)cc1 [Compound 6-109, N-(1-(4-cyanobenzyl)piperidin-4-yl)-5-(4-(4-(cyclopropanecarbonyl)phenyl)piperazine-1-carbonyl)benzofuran-2-carboxamide]	< 100
CN(C)C(=O)c1ccc(N2CCN(C(=O)c3ccc4oc(C(=O)NC5CCN(Cc6ccc(C#N)cc6)CC5)cc4c3)CC2)cc1 [Compound 6-110, N-(1-(4-cyanobenzyl)piperidin-4-yl)-5-(4-(4-(dimethylcarbamoyl)phenyl)piperazine-1-carbonyl) benzofuran-2-carboxamide]	100 to 1000
